Measurements reported in patent publication US12161748B2, “Topical formulations comprising tofacitinib” (TWi Biotechnology, Inc., priority 2018, dated 2024).
Structures can show the parent of a compound that is named as a salt.

Key:
[1] = Solubility study of tofacitinib citrate in various solvents (HPLC); format: physicochemical; conditions: for solubility: thermodynamic from solid
Protocol: A solubility study was conducted in the course of formulation development. The suspension was stirred overnight and filtered through 0.22 μm filter. The filtrate was diluted into suitable concentration.

[2] = Compatibility study of dissolved tofacitinib citrate with excipients, 60° C. seven days, HPLC; format: physicochemical; conditions: 1 Week
From the text: The total degradation products in the mixtures were further analyzed by HPLC.

C[C@@H]1CCN(C(=O)CC#N)C[C@@H]1N(C)c1ncnc2[nH]ccc12 [Tofacitinib Citrate, 3-((3R,4R)-4-methyl-3-[methyl-(7H-pyrrolo[2,3-d]pyrimidin-4-yl)-amino]-piperidin-1-yl)-3-oxopropionitrile]
Solubility Descriptive Term ([1]; 0.1N HCl): Sparingly
solubility ([1]; 0.1N HCl, simulated gastric fluid): 23900 µg/mL
Solubility Descriptive Term ([1]; Dimethyl sulfoxide (DMSO)): Freely soluble
Solubility Descriptive Term ([1]; Dimethyl sulfoxide (DMSO), listed as tofacitinib citrate): freely soluble
Solubility Descriptive Term ([1]; Ethanol): Very slightly
Solubility Descriptive Term ([1]; Ethanol, listed as tofacitinib citrate): very slightly soluble
Solubility Descriptive Term ([1]; H2O): Slightly soluble
Solubility Descriptive Term ([1]; H2O, listed as tofacitinib citrate): slightly soluble
Solubility Descriptive Term ([1]; Propylene Glycol (PG)): Slightly soluble
Solubility Descriptive Term ([1]; Propylene Glycol (PG), listed as tofacitinib citrate): slightly soluble
solubility ([1]; aqueous buffer, pH 3.0, 50 mM Citrate Buffer): 600 µg/mL
solubility ([1]; aqueous buffer, pH 4.5, 50 mM Acetate Buffer): 1810 µg/mL
solubility ([1]; aqueous buffer, pH 6.8, 50 mM Phosphate Buffer): 120 µg/mL
solubility ([1]; aqueous buffer, pH 7.5, 50 mM Phosphate Buffer): 120 µg/mL
solubility ([1]; aqueous buffer, pH 9.0, 50 mM Phosphate Buffer): 120 µg/mL
solubility ([1]; aqueous with cosolvent or surfactant or cyclodextrin, pH 4.5, 50 mM Acetate Buffer/PEG300 = 70/30): 3160 µg/mL
solubility ([1]; aqueous with cosolvent or surfactant or cyclodextrin, pH 7.5, 50 mM Phosphate Buffer/PEG300 = 70/30): 1590 µg/mL
solubility ([1]; dimethyl sulfoxide (DMSO), organic solvent or mixture): > 100000 µg/mL
solubility ([1]; ethanol, organic solvent or mixture): 480 µg/mL
Solubility Descriptive Term ([1]; pH 3.0, 50 mM Citrate Buffer): Very slightly
Solubility Descriptive Term ([1]; pH 4.5, 50 mM Acetate Buffer): Slightly soluble
Solubility Descriptive Term ([1]; pH 4.5, 50 mM Acetate Buffer/PEG300 = 70/30): Slightly soluble
Solubility Descriptive Term ([1]; pH 6.8, 50 mM Phosphate Buffer): Very slightly
Solubility Descriptive Term ([1]; pH 7.5, 50 mM Phosphate Buffer): Very slightly
Solubility Descriptive Term ([1]; pH 7.5, 50 mM Phosphate Buffer/PEG300 = 70/30): Slightly soluble
Solubility Descriptive Term ([1]; pH 9.0, 50 mM Phosphate Buffer): Very slightly
solubility ([1]; propylene glycol (PG), organic solvent or mixture): 1920 µg/mL
solubility ([1]; water, H2O): 3000 µg/mL
Total Degradation Products [2]: 0.06%
